± gives the standard deviation of the averaged measurements.
Tests used:
[1] = compound: CCn1c(C(=O)N(C2CC2)C2CC2)cc2c3c(ncn3C)c(Nc3cc(C)n(C)n3)nc21; test: surviving fraction relative to DMSO-only wells; higher = less growth inhibition; conditions: exposure time: 5 days
How it was run: (§1)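 Luminescence normalised to the median of DMSO-only wells defines surviving fraction, with viability read by CellTiter-Glo. Signal was recorded after 10 minutes at room temperature, once log-phase tumour cell lines seeded at 250–500 cells per well in 384-well plates had spent 24 hours settling and then five days under continuous exposure to inhibitors at 0.5, 1, 5, 10, 50, 100, 500 and 1000 nM.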

CRIZOTINIB = compound: C[C@@H](Oc1cc(-c2cnn(C3CCNCC3)c2)cnc1N)c1c(Cl)ccc(F)c1Cl [CRIZOTINIB]; test: as above; conditions: exposure time: 5 days
How it was run: as §1

Test System	surviving fraction ([1]; 0.5 nM)	surviving fraction ([1]; 1 nM)	surviving fraction ([1]; 5 nM)	surviving fraction ([1]; 10 nM)	surviving fraction ([1]; 50 nM)	surviving fraction ([1]; 100 nM)	surviving fraction ([1]; 500 nM)	surviving fraction ([1]; 1000 nM)	surviving fraction (CRIZOTINIB; 0.5 nM)	surviving fraction (CRIZOTINIB; 1 nM)	surviving fraction (CRIZOTINIB; 10 nM)	surviving fraction (CRIZOTINIB; 50 nM)	surviving fraction (CRIZOTINIB; 100 nM)	surviving fraction (CRIZOTINIB; 500 nM)	surviving fraction (CRIZOTINIB; 1000 nM)	surviving fraction (CRIZOTINIB; 5 nM)
MG63 BONE	0.9877 ± 0.0096	0.944 ± 0.016	0.992 ± 0.02	0.981 ± 0.031	1.01 ± 0.011	0.98 ± 0.015	0.928 ± 0.013	0.891 ± 0.021	1.05 ± 0.04	1.07 ± 0.053	1.11 ± 0.043	1.07 ± 0.051	1 ± 0.052	0.827 ± 0.034	0.743 ± 0.031	
MHM BONE	0.979 ± 0.035	0.964 ± 0.015	1 ± 0.022	0.995 ± 0.013	1 ± 0.019	0.999 ± 0.0044	0.976 ± 0.024	0.949 ± 0.022	1.03 ± 0.037	1.02 ± 0.034	1.1 ± 0.047	1.07 ± 0.02	1.05 ± 0.021	0.96 ± 0.011	0.884 ± 0.031	1.09 ± 0.053
NCIH441 LUNG	0.92 ± 0.068	0.97 ± 0.033	1.03 ± 0.033	1.01 ± 0.13	0.952 ± 0.063	1.04 ± 0.037	1.06 ± 0.068	1.04 ± 0.017	1.23 ± 0.069	1.2 ± 0.067	1.12 ± 0.043	1.04 ± 0.045	0.967 ± 0.089	1.02 ± 0.058	0.83 ± 0.16	1.09 ± 0.038
NOS1 BONE	1.09 ± 0.11	1.13 ± 0.12	1.14 ± 0.035	1.04 ± 0.1	1.12 ± 0.15	1.13 ± 0.088	1.06 ± 0.2	0.884 ± 0.16	1.03 ± 0.12	1.13 ± 0.07	1.23 ± 0.2	1.11 ± 0.043	1.69 ± 0.86	0.69 ± 0.036	0.484 ± 0.051	1.11 ± 0.044
NY BONE	0.934 ± 0.0062	0.932 ± 0.038	1.002 ± 0.01	0.975 ± 0.026	1.02 ± 0.022	0.99 ± 0.013	0.922 ± 0.025	0.915 ± 0.018	1.07 ± 0.052	1.06 ± 0.047	1.09 ± 0.038	1.08 ± 0.035	1.02 ± 0.021	0.883 ± 0.026	0.577 ± 0.018	1.12 ± 0.041
OS25HAL BONE	0.9497 ± 0.005	0.953 ± 0.018	0.945 ± 0.015	0.952 ± 0.022	1.04 ± 0.024	1.045 ± 0.0067	1.018 ± 0.0064	1.01 ± 0.011	1.06 ± 0.031	1.01 ± 0.028				0.929 ± 0.098	0.326 ± 0.016	
OSHN BONE	1.03 ± 0.026	1.02 ± 0.016	1.03 ± 0.017	1.01 ± 0.025	1.05 ± 0.041	1.03 ± 0.04	1.03 ± 0.033	0.999 ± 0.023	1.11 ± 0.026	1.12 ± 0.035	1.14 ± 0.027	1.12 ± 0.081	1.14 ± 0.044	1.08 ± 0.048	0.677 ± 0.067	1.12 ± 0.032
PCI30 HEADNECK	0.872 ± 0.024	0.74 ± 0.04	0.98 ± 0.05	1 ± 0.073	0.991 ± 0.065	1.01 ± 0.026	0.964 ± 0.013	0.895 ± 0.049	1.07 ± 0.075	1.12 ± 0.058	1.1 ± 0.072	1.03 ± 0.024		0.759 ± 0.055	0.6787 ± 0.0025	1.02 ± 0.028
RDES SOFT TISSUE	1.24 ± 0.11	1.2 ± 0.16	1.33 ± 0.071	1.27 ± 0.024	1.26 ± 0.12	1.19 ± 0.13	1.22 ± 0.13	1.39 ± 0.12		1.24 ± 0.083	1.15 ± 0.11		1.16 ± 0.1	1.44 ± 0.12	0.194 ± 0.047	
S68 BREAST	1.1 ± 0.39	0.683 ± 0.17	0.816 ± 0.16	0.974 ± 0.13	1.35 ± 0.11	0.945 ± 0.054	0.823 ± 0.016	0.817 ± 0.11	0.895 ± 0.078	1.16 ± 0.3	0.981 ± 0.1	1.17 ± 0.26		0.417 ± 0.11	0.361 ± 0.049	1.04 ± 0.55
SAOS2 BONE	1 ± 0.061	0.97 ± 0.011	1.06 ± 0.12	0.96 ± 0.031	1.12 ± 0.02	1.05 ± 0.069	1.05 ± 0.072	1.04 ± 0.091	1.14 ± 0.063	1.12 ± 0.023	1.23 ± 0.068	1.34 ± 0.14	1.19 ± 0.1	0.541 ± 0.046	0.1927 ± 0.00058	1.2 ± 0.044
SCC003 HEADNECK	0.92 ± 0.15	0.937 ± 0.047	1.02 ± 0.095	0.968 ± 0.015	1.11 ± 0.099	1.12 ± 0.12	0.917 ± 0.12	0.928 ± 0.045	1.07 ± 0.043		1.06 ± 0.064	1.06 ± 0.045	1.09 ± 0.058	0.929 ± 0.1	0.793 ± 0.044	1.08 ± 0.13
SCC36 HEADNECK	0.87 ± 0.045	1.07 ± 0.1	1.12 ± 0.077	1.11 ± 0.044	1.12 ± 0.073	1.04 ± 0.032	1.07 ± 0.093	0.962 ± 0.057	1.05 ± 0.11	1.06 ± 0.026	1.24 ± 0.1	1.13 ± 0.17	1.07 ± 0.22	0.552 ± 0.072	0.301 ± 0.025	1.2 ± 0.088
SCC47 HEADNECK	0.86 ± 0.014	0.823 ± 0.037	0.995 ± 0.094	0.968 ± 0.1	0.99 ± 0.063	1.06 ± 0.072	0.88 ± 0.016	0.916 ± 0.12	1.11 ± 0.056	1.08 ± 0.068	1.16 ± 0.034	1.18 ± 0.018	1.15 ± 0.11			1.13 ± 0.048
SCC90 HEADNECK	0.826 ± 0.041	0.929 ± 0.046	1.05 ± 0.14	0.964 ± 0.091	0.976 ± 0.04	1.01 ± 0.13	0.875 ± 0.093	0.922 ± 0.061	1.06 ± 0.036	0.972 ± 0.058	1.1 ± 0.067	1.08 ± 0.0074	1.12 ± 0.066	0.9977 ± 0.0097	0.762 ± 0.085	1.04 ± 0.087
SG27 HEADNECK	0.996 ± 0.14	0.974 ± 0.089	1.01 ± 0.067	1.01 ± 0.056	1.02 ± 0.077	1.03 ± 0.11	0.915 ± 0.074	0.931 ± 0.17	1.25 ± 0.084	1.09 ± 0.11	1.14 ± 0.022	1.12 ± 0.17	1.11 ± 0.091	1.18 ± 0.13		
SG28 HEADNECK	1.06 ± 0.11	1.05 ± 0.038	1.02 ± 0.025	1.02 ± 0.046	1.13 ± 0.043	0.954 ± 0.096	0.951 ± 0.081	0.95 ± 0.093	1.06 ± 0.052	1.18 ± 0.1	1.22 ± 0.055	1.08 ± 0.025	1.15 ± 0.12	1.044 ± 0.0092		
SG31 HEADNECK	1.04 ± 0.069	1.02 ± 0.043	1.02 ± 0.12	0.875 ± 0.1	0.949 ± 0.13	1.08 ± 0.46	0.955 ± 0.16	0.961 ± 0.06		1.2 ± 0.13	1.22 ± 0.24	1.17 ± 0.26	1.19 ± 0.18	0.856 ± 0.073	0.6 ± 0.058	1.01 ± 0.12
